“Also recorded” adds a separate entry of the source.
Experiments:
[1] = tested on: genomic albumin (Alb) locus, mouse liver; assay: In vivo gene targeting with rAAV8 Alb-P2A-hF9 vector, serum hF9 by ELISA; conditions: for serum hF9 protein levels: vs vehicle; for serum hF9 levels: 2 months after AAV injection; for hF9 expression (plasma/serum hF9 levels): mice, drug ip three sequential days, rAAV8 Alb/F9 on first day, vs controls
Procedure: FIG. 5 Depicts results from in vivo delivery of AAV-based HR in mice. A schematic depicts the injection schedule. rAAV was used to deliver a donor sequence encoding human coagulation factor IX (hF9) into the genomic Albumin (Alb) locus. Plasma hF9 expression in the mouse liver was measured as an assay to detect integration and expression of the integrated donor sequence. […] Experimental plan and time schedule: each drug was given three sequential days by ip injection and AAV was injected at first day with 1e11 vector genome (vg)/g body weight. Serum samples were collected at each time point and hF9 levels were measured by ELISA. Body weight of each mouse were measured to monitor the toxic effect of each drug.
The efficacy of RNR inhibitors in vivo was tested using an AAV8 vector that incorporates a Alb/F9 targeting sequence. The “Alb/F9” targeting vector was an AAV that included a donor DNA having a nucleotide sequence of interest flanked by homology arms that facilitated integration of the sequence of interest into the genomic albumin (Alb) locus. The nucleotide sequence of interest in this case was a 2A peptide sequence 5′ of a sequence encoding human coagulation factor IX (hF9). Thus, once integrated into the genomic locus, the 2A peptide sequence was present between the endogenous albumin coding sequence and the introduced/integrated hF9 coding sequence such that expression of hF9 mRNA was under the control of the albumin promoter but translation of the transcript led to two separate proteins (albumin and hF9). […] Thus, the lack of efficacy observed based on hF9 liver expression (see FIG. 5) is likely due to low/substantially no HU in the liver (FIG. 6). Given the in vitro HU results and the in vitro and in vivo fludarabine results—in addition to the gemcitabine results of FIG. 7, it is likely and expected that AAV-based HR is enhanced in vivo by HU in organs/tissues other than the liver (e.g., kidney, spleen, heart, lung, testes, brain, etc.).
B6 mice were received tail vain injections of rAAV8 packaging each vector at the designated dose and were bled at indicated time points. Body weight of mice were measured using Scout pro portable scale (Ohaus) at indicated time points. Serum samples were obtained by centrifuge at 10,000 rpm for 10 minutes and used for ELISA assay of hF9. Hydroxyurea or fludarabine was resuspended in PBS and were injected intraperitoneally with indicated dose/regimen. For BrdU labeling of proliferating mice hepatocytes, BrdU was resuspended in PBS and were intraperitoneally injected for indicated time periods at 200 mg/kg per day for 3 days or 7 days. Diethylnitrosamine solution was prepared using saline and was also intraperitoneally injected for 3 days at 10 or 30 mg/kg. At the end of experiments, mice were anesthetized with isoflurane and perfused transcardially with PBS and then liver tissues were quickly harvested and cut into several pieces. The tissues for mRNA extractions were immediately submerged in RNAlater solution (Sigma) and stored at 4° C. until use. For gDNA or protein extraction, tissues were snap-frozen in liquid nitrogen and stored at −80° C. until use.
(§1) Mice serum samples were used to quantify hF9 protein expression levels. ELISA for hF9 was performed as previously described with the following antibodies: mouse anti-hF9 IgG primary antibody at 1:1,000 (Sigma Cat#F2645), and polyclonal goat anti-hF9 peroxidase-conjugated IgG secondary antibody at 1:4,000 (Enzyme Research Cat#GAFIX-APHRP).

P Ser139 γH2AX = P Ser139 γH2AX DNA damage response in mouse liver (IHC, Western blot)
[2] = Body weight of treated mice; conditions: for body weight: mice, drug ip three sequential days plus rAAV8 Alb/F9, relative to controls
mouse liver = assay: qPCR of liver DNA and mRNA after Alb-P2A-hF9 vector injection
hepatocytes = assay: BrdU incorporation in mouse liver (hepatocyte proliferation); type: in vivo
murine ApoE locus = assay: In vivo gene targeting with rAAV8-ApoE-P2A-hF9 vector, serum hF9; set-up: species or system mouse; conditions: vs PBS
Procedure: Serum was collected at various times across a nearly 60-day time course and hF9 protein levels were determined. Error bars represent s.e.; n=4
Also examined was whether fludarabine-mediated enhancement of gene targeting was Albumin specific—this was done by designing a vector targeting an alternative genomic locus, ApoE. ApoE is highly and specifically expressed in hepatocytes, similar to Albumin. When 1.0×10^11 vg/mouse of this vector (ApoE-P2A-hF9) was injected with fludarabine treatment, a significant increase in hF9 expression compared to PBS-injected mice was observed (FIG. 12). The fold-increase (3.6-fold at day 54) was similar to findings targeting the Albumin locus.
as §1

hepatocytes of mice = assay: RNAscope in situ hybridization of hF9 mRNA in liver sections; type: in vivo; conditions: vs PBS treated mouse
Huh7 cells = assay: AAV-HR efficiency, AAV-DJ GAPDH/GFP targeting vector, GFP positive cells by FACS; type: cell-based, human; conditions: for HR efficiency (GFP positive population by FACS analysis) / AAV-HR efficiency (GFP positive fraction): Huh7; for HR efficiency (GFP positive population by FACS analysis): AAV-DJ GAPDH targeting vector; for AAV-HR efficiency (GFP positive fraction): FIG. 7, drug pretreatment 16 hours, washed out, FACS 14 days after infection
[3] = tested on: Albumin gene locus, mouse hepatocytes; assay: CRISPR/Cas9-mediated gene editing in vivo, SaCas9-sgRNA8 plus rAAV8-Alb-P2A-GFP, GFP staining of liver; conditions: vs PBS, Alb-P2A-GFP 6.0×10^12 or 3.0×10^13 vg/kg, 2 weeks after AAV injection

CCN(CC)N=O [DEN, diethylnitrosamine]
serum hF9 protein levels ([1]; DEN 10 mg/kg, not statistically significant): ~1.5 fold
serum hF9 protein levels ([1]; DEN 30 mg/kg, three weeks post rAAV injection): about 3.6 fold
γH2AX staining of liver sections (IHC) (P Ser139 γH2AX; DEN-treated mice, positive control): intense nuclear staining of γH2AX
body weight gains ([2]; DEN 10 or 30 mg/kg i.p. once per day for three days, vs vehicle, dose-dependent): decreased body weight gains
endogenous albumin mRNA expression (mouse liver; DEN 10 or 30 mg/kg, liver): nearly unchanged
total hF9 mRNA expression (mouse liver; DEN high dose (30 mg/kg), liver, vs vehicle): 3.9 fold
total hF9 mRNA expression (mouse liver; DEN low dose (10 mg/kg), liver, vs vehicle): 2 fold
on-target HR derived fusion Alb-P2A-hF9 mRNA (mouse liver; DEN, both dose groups, liver, vs vehicle): about 2 fold

Nc1nc(F)nc2c1ncn2[C@@H]1O[C@H](CO)[C@@H](O)[C@@H]1O [Fludarabine, (2R,3S,4S,5R)-2-(6-amino-2-fluoropurin-9-yl)-5-(hydroxymethyl)oxolane-3,4-diol]
BrdU incorporation in liver (hepatocytes; BrdU for three days in washout phase after fludarabine, vs acute phase): significantly greater
BrdU labeled nuclei in liver sections (hepatocytes; BrdU given during fludarabine 125 mg/kg three times per day for three days (acute phase)): nearly absent
fold-increase in hF9 expression (murine ApoE locus; ApoE-P2A-hF9 1.0×10^11 vg/mouse, day 54): 3.6 fold
efficiency of gene targeting at the ApoE locus (serum hF9) (murine ApoE locus; nearly 60-day time course): increased the efficiency of gene targeting at the ApoE locus
serum hF9 levels ([1]; Flu 125 mg/kg i.p. 3 times per day for five days, vs PBS): 6.4 fold
hF9 expression / gene targeting efficiency with delayed dose ([1]; fludarabine 125 mg/kg i.p. three times per day on days 28-30 after rAAV, serum day 54): little to no effect; also recorded: failed to increase the efficiency of gene targeting
hF9 expression (plasma/serum hF9 levels) [1]: increased hF9 expression
hF9 expression (plasma/serum hF9 levels) ([1]; listed as fludarabine): significantly and consistently increased serum hF9 levels
serum hF9 levels ([1]; single administration (1 day) of fludarabine): about 2 fold
γH2AX in liver tissue lysates (Western blotting) (P Ser139 γH2AX; acute phase of fludarabine treatment): strong detection of γH2AX
γH2AX foci in liver (IHC) (P Ser139 γH2AX; three-day washout after fludarabine, vs immediately proximal to treatment): significantly reduced
γH2AX foci in liver (IHC) (P Ser139 γH2AX; time proximate to fludarabine treatment): widespread nuclear localized γH2AX foci
frequency of hF9 mRNA positive cells (hepatocytes of mice): increased the number of hF9 positive hepatocytes
frequency of hF9 mRNA positive cells (hepatocytes of mice; listed as fludarabine): clearly more frequent
AAV-HR efficiency in cultured cells (Huh7 cells; FIG. 4, Hun7 cells): significantly enhanced AAV-HR efficiency
increase in HR efficiency (Huh7 cells; FIG. 4, vs no RNR inhibitor): 3.5 fold
HR efficiency (GFP positive population by FACS analysis) (Huh7 cells): reproducibly increased HR efficiency
body weight [2]: without any body weight change
body weight ([2]; listed as fludarabine): without any body weight loss
endogenous albumin expression (mouse liver; liver mRNA, fludarabine treatment): not changed
on-target integrated Alb-P2A-hF9 fusion mRNA expression (mouse liver; liver, vs PBS, normalized to Actb): 5.1 fold
total hF9 mRNA (mouse liver; liver, vs controls, vector-internal primer set): 4.4 fold
number of GFP positive hepatocytes [3]: increased the efficiency of CRISPR/Cas9-mediated gene editing
number of GFP positive hepatocytes ([3]; listed as fludarabine): increase of the number of GFP positive hepatocytes

Nc1ccn([C@@H]2O[C@H](CO)[C@@H](O)C2(F)F)c(=O)n1 [Gemcitabine]
AAV-HR efficiency (GFP positive fraction) (Huh7 cells): enhanced AAV-HR efficiency
HR efficiency (GFP positive population by FACS analysis) (Huh7 cells): reproducibly increased HR efficiency

NC(=O)NO [Hydroxyurea, hydroxyurea]
hF9 expression (plasma/serum hF9 levels) [1]: did not exhibit enhancement of hF9 expression

COc1cc([C@@H]2c3cc4c(cc3[C@@H](O[C@@H]3O[C@@H]5CO[C@@H](c6cccs6)O[C@H]5[C@H](O)[C@H]3O)[C@H]3COC(=O)[C@H]23)OCO4)cc(OC)c1O [Teniposide, teniposide]
AAV-HR efficiency (GFP positive fraction) (Huh7 cells): no effect
HR efficiency (GFP positive population by FACS analysis) (Huh7 cells): no effect
